From patent publication US20240254118A1, “PRMT5 INHIBITORS AND USES THEREOF” (Gilead Sciences, Inc., priority 2022, published 2024)

How the values were obtained:
[1] = test system: SDMA signal (PRMT5 inhibition) in HCT116 MTAP-deleted cells; experiment: Symmetric di-methyl arginine image-based high content screen assay (SDMA assay), HCT116 MTAP-deleted; assay type: cell-based; details: SDMA assay; for EC50: Homo sapiens, HCT-116, 72 h, 3 days of treatment, cell line not given, taken as HCT116 MTAP-deleted, read-out: EC50 (SDMA assay)
Procedure, shortened: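 Read-out: per-cell mean SDMA immunofluorescence (Alexa Fluor 488 secondary), cells segmented by DAPI on a high-content imager. Compound exposure in HCT116 MTAP-deleted cells lasted until fixation on Day 3; overnight 4° C primary anti-SDMA antibody staining.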

[2] = test system: HCT116 MTAP-deleted cells; experiment: Cell viability assay (CellTiter-Glo, 7 days), HCT116 MTAP-deleted; details: Homo sapiens, HCT-116, 168 h
[3] = taken as HCT116 WT versus MTAP-deleted

Compound | EC50 [1] | EC50 selectivity (SDMA assay) [1, 3] | CC50 [2] | EC50 selectivity (SDMA assay) ([1]; taken as HCT116 WT vs MTAP-deleted)
CC(=O)N([C@H]1CCOC1)N(Cc1ccc(C(F)(F)F)cn1)C(=O)c1ccc2nc(N)c3cnn(C)c3c2c1 [Example 207, N′-acetyl-4-amino-1-methyl-N′-[(3S)-tetrahydrofuran-3-yl]-N-[[5-(trifluoromethyl)-2-pyridyl]methyl]pyrazolo[4,3-c]quinoline-8-carbohydrazide] | 1 to 5 nM | 364 | 100 to 1000 nM | –
CCN(C(C)=O)N(Cc1ccc(OC(F)F)cc1F)C(=O)c1cc2c(cc1F)nc(N)c1cnn(C)c12 [Example 154, N′-acetyl-4-amino-N-(4-(difluoromethoxy)-2-fluorobenzyl)-N′-ethyl-7-fluoro-1-methyl-1H-pyrazolo[4,3-c]quinoline-8-carbohydrazide] | < 1 nM | 45 | < 100 nM | –
CN(C(=O)C12CC(C1)C2)N(Cc1ccc(C(F)(F)F)cn1)C(=O)c1ccc2nc(N)c3cnn(C)c3c2c1 [Example 101, 4-amino-N′-(bicyclo[1.1.1]pentane-1-carbonyl)-N′,1-dimethyl-N-[[5-(trifluoromethyl)-2-pyridyl]methyl]pyrazolo[4,3-c]quinoline-8-carbohydrazide] | 1 to 5 nM | 108 | < 100 nM | –
CC(=O)N(C)N(Cc1ccc(C(F)(F)F)cc1F)C(=O)c1cc2c(cc1F)nc(N)c1cnn(C)c12 [Example 40, N′-acetyl-4-amino-7-fluoro-N-[[2-fluoro-4-(trifluoromethyl)phenyl]methyl]-N′,1-dimethyl-pyrazolo[4,3-c]quinoline-8-carbohydrazide] | < 1 nM | 8 | < 100 nM | –
CN(C(=O)OCC(F)F)N(Cc1ccc(C(F)(F)F)cn1)C(=O)c1ccc2nc(N)c3cnn(C)c3c2c1 [Example 110, 2,2-difluoroethyl N-[(4-amino-1-methyl-pyrazolo[4,3-c]quinoline-8-carbonyl)-[[5-(trifluoromethyl)-2-pyridyl]methyl]amino]-N-methyl-carbamate] | < 1 nM | 11 | < 100 nM | –
CC(=O)N(C1COC1)N(Cc1ccc(C(F)(F)F)cc1F)C(=O)c1ccc2nc(N)c3cnn(C)c3c2c1 [Example 340, N′-acetyl-4-amino-N-(2-fluoro-4-(trifluoromethyl)benzyl)-1-methyl-N′-(oxetan-3-yl)-1H-pyrazolo[4,3-c]quinoline-8-carbohydrazide] | < 1 nM | 50 | < 100 nM | –
CN(C(=O)C1CC1)N(Cc1ccc(C(F)(F)F)cn1)C(=O)c1ccc2nc(N)c3cnn(C)c3c2c1 [Example 111, 4-amino-N′-(cyclopropanecarbonyl)-N′,1-dimethyl-N-[[5-(trifluoromethyl)-2-pyridyl]methyl]pyrazolo[4,3-c]quinoline-8-carbohydrazide] | < 1 nM | 129 | < 100 nM | –
Cn1ncc2c(N)nc3ccc(C(=O)N(Cc4ccc(C(F)(F)F)cn4)NC(=O)OC4CCC4)cc3c21 [Example 330, cyclobutyl 2-(4-amino-1-methyl-1H-pyrazolo[4,3-c]quinoline-8-carbonyl)-2-((5-(trifluoromethyl)pyridin-2-yl)methyl)hydrazine-1-carboxylate] | < 1 nM | 225 | < 100 nM | –
CC(=O)N(C)N(Cc1c(F)cc(F)cc1F)C(=O)c1ccc2nc(N)c3cnn(C)c3c2c1 [Example 413, N′-acetyl-4-amino-N′,1-dimethyl-N-(2,4,6-trifluorobenzyl)-1H-pyrazolo[4,3-c]quinoline-8-carbohydrazide] | < 1 nM | – | < 100 nM | 497
CN(C(=O)c1ccccn1)N(Cc1ccc(C(F)(F)F)cn1)C(=O)c1ccc2nc(N)c3cnn(C)c3c2c1 [Example 118, 4-amino-N′,1-dimethyl-N′-picolinoyl-N-((5-(trifluoromethyl)pyridin-2-yl)methyl)-1H-pyrazolo[4,3-c]quinoline-8-carbohydrazide] | < 1 nM | 96 | < 100 nM | –
CN1CCN(N(Cc2ccc(C(F)(F)F)cn2)C(=O)c2cc3c(cc2F)nc(N)c2cnn(C)c23)C(=O)C1 [Example 383, 4-amino-7-fluoro-1-methyl-N-(4-methyl-2-oxo-piperazin-1-yl)-N-[[5-(trifluoromethyl)-2-pyridyl]methyl]pyrazolo[4,3-c]quinoline-8-carboxamide] | 1 to 5 nM | 168 | < 100 nM | –
Cn1ncc2c(N)nc3ccc(C(=O)N(Cc4ccc(C(F)(F)F)cn4)N4CCC(F)(F)CC4)cc3c21 [Example 22, 4-amino-N-(4,4-difluoro-1-piperidyl)-1-methyl-N-[[5-(trifluoromethyl)-2-pyridyl]methyl]pyrazolo[4,3-c]quinoline-8-carboxamide] | 1 to 5 nM | 260 | < 100 nM | –
Cn1ncc2c(N)nc3ccc(C(=O)N(Cc4ccc(-c5cnn(C(F)(F)F)c5)cn4)N4CCCCC4=O)cc3c21 [Example 161, 4-amino-1-methyl-N-(2-oxopiperidin-1-yl)-N-((5-(1-(trifluoromethyl)-1H-pyrazol-4-yl)pyridin-2-yl)methyl)-1H-pyrazolo[4,3-c]quinoline-8-carboxamide] | 1 to 5 nM | 51 | < 100 nM | –
Cn1ncc2c(N)nc3cc(F)c(C(=O)N(Cc4ccc(C(F)(F)F)cn4)N4CCCOC4=O)cc3c21 [Example 144, 4-amino-7-fluoro-1-methyl-N-(2-oxo-1,3-oxazinan-3-yl)-N-[[5-(trifluoromethyl)-2-pyridyl]methyl]pyrazolo[4,3-c]quinoline-8-carboxamide] | 1 to 5 nM | 43 | < 100 nM | –
CN(C(=O)C1CC1)N(Cc1ccc(Cl)cn1)C(=O)c1ccc2nc(N)c3cnn(C)c3c2c1 [Example 221, 4-amino-N-((5-chloropyridin-2-yl)methyl)-N′-(cyclopropanecarbonyl)-N′,1-dimethyl-1H-pyrazolo[4,3-c]quinoline-8-carbohydrazide] | 1 to 5 nM | 218 | < 100 nM | –
COCCN(C)N(Cc1ccc(C(F)(F)F)cn1)C(=O)c1cc2c(cc1F)nc(N)c1cnn(C)c12 [Example 180, 4-amino-7-fluoro-N′-(2-methoxyethyl)-N′,1-dimethyl-N-((5-(trifluoromethyl)pyridin-2-yl)methyl)-1H-pyrazolo[4,3-c]quinoline-8-carbohydrazide] | < 1 nM | 50 | < 100 nM | –
Cn1ncc2c3cc(C(=O)N(Cc4ccc(C(F)(F)F)cn4)N4CCOC4=O)ccc3nc(N)c21 [Example 150, 4-amino-3-methyl-N-(2-oxooxazolidin-3-yl)-N-((5-(trifluoromethyl)pyridin-2-yl)methyl)-3H-pyrazolo[3,4-c]quinoline-8-carboxamide] | 1 to 5 nM | 138 | < 100 nM | –
CN(C(=O)C1CC1)N(Cc1ccc(C(F)(F)F)cn1)C(=O)c1cc2c(cc1F)nc(N)c1cnn(C)c12 [Example 146, 4-amino-N′-(cyclopropanecarbonyl)-7-fluoro-N′,1-dimethyl-N-[[5-(trifluoromethyl)-2-pyridyl]methyl]pyrazolo[4,3-c]quinoline-8-carbohydrazide] | < 1 nM | 16 | < 100 nM | –
CN(C(=O)C1CC1)N(Cc1ccc2c(c1)OC(F)(F)O2)C(=O)c1ccc2nc(N)c3cnn(C)c3c2c1 [Example 283, 4-amino-N′-(cyclopropanecarbonyl)-N-((2,2-difluorobenzo[d][1,3]dioxol-5-yl)methyl)-N′,1-dimethyl-1H-pyrazolo[4,3-c]quinoline-8-carbohydrazide] | < 1 nM | 80 | < 100 nM | –
CN1CCN(N(Cc2ccc(C(F)(F)F)cn2)C(=O)c2ccc3nc(N)c4cnn(C)c4c3c2)C1=O [Example 32, 4-amino-1-methyl-N-(3-methyl-2-oxo-imidazolidin-1-yl)-N-[[5-(trifluoromethyl)-2-pyridyl]methyl]pyrazolo[4,3-c]quinoline-8-carboxamide] | < 1 nM | 74 | < 100 nM | –
Nc1nc2cc(F)c(C(=O)N3CCCCN3c3ccc(C(F)(F)F)cn3)cc2c2cscc12 [Example 131, (4-amino-7-fluoro-thieno[3,4-c]quinolin-8-yl)-[2-[5-(trifluoromethyl)-2-pyridyl]hexahydropyridazin-1-yl]methanone] | > 5 nM | 279 | > 1000 nM | –
Cn1ncc2c(N)nc3cc(F)c(C(=O)N(Cc4ccc(C(F)(F)F)cc4F)n4ccnc4)cc3c21 [Example 200, 4-amino-7-fluoro-N-[[2-fluoro-4-(trifluoromethyl)phenyl]methyl]-N-imidazol-1-yl-1-methyl-pyrazolo[4,3-c]quinoline-8-carboxamide] | < 1 nM | 6 | < 100 nM | –
CC(=O)N(C)N(Cc1ccc(C2CC2)nc1F)C(=O)c1ccc2nc(N)c3cnn(C)c3c2c1 [Example 228, N′-acetyl-4-amino-N-((6-cyclopropyl-2-fluoropyridin-3-yl)methyl)-N′,1-dimethyl-1H-pyrazolo[4,3-c]quinoline-8-carbohydrazide] | 1 to 5 nM | 205 | < 100 nM | –
CC(=O)N(C)N(Cc1ccc(OC(F)F)cc1F)C(=O)c1ccc2nc(N)c3cnn(C)c3c2c1 [Example 77, N′-acetyl-4-amino-N-(4-(difluoromethoxy)-2-fluorobenzyl)-N′,1-dimethyl-1H-pyrazolo[4,3-c]quinoline-8-carbohydrazide] | < 1 nM | 69 | < 100 nM | –
